Our source for the Ratio EC50, Emax and Activity values is ChEMBL document CHEMBL1153382 (J Med Chem, 2009).

The structures appear in SMILES notation. Active and inactive are the calls of the source. The calls are words filed in the database; no cut-off is given here.

The target of one assay is Serotonin 2 receptors; 5-HT2a & 5-HT2c (Homo sapiens) (UniProt P28223+P28335). Kind of assay: Selectivity ratio of EC50 for human 5HT2A receptor to EC50 for human 5HT2C receptor.
Chain of Serotonin 2 receptors; 5-HT2a & 5-HT2c (Homo sapiens) (P28223 whole entry, looked up, one chain of several): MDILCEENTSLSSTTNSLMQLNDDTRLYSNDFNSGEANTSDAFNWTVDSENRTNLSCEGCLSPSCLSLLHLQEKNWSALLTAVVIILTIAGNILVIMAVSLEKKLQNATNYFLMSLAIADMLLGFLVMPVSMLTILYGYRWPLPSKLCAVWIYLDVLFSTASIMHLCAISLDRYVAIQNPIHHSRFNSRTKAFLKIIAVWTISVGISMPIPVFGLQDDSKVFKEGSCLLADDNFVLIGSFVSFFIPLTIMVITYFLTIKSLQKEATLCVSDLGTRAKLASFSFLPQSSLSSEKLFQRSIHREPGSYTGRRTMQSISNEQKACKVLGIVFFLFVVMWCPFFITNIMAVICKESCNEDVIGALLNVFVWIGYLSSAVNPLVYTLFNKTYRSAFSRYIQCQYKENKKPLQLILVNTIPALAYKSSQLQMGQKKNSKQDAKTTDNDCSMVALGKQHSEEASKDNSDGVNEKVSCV
Take `NC[C@H]1C[C@@H]1c1ccc(F)cc1F` (relative stereo): the Ratio EC50 worked out at 13.

`NC[C@H]1C[C@@H]1c1cccc(Br)c1` (relative stereo): the Ratio EC50 stood at 123.

Consider `NC[C@H]1C[C@@H]1c1cccc(C(F)(F)F)c1` (relative stereo), for which the Ratio EC50 amounted to 50.

`NC[C@H]1C[C@@H]1c1cccc(Cl)c1` (relative stereo): the Ratio EC50 was determined as 189.

`NC[C@H]1C[C@@H]1c1cccc(Cl)c1Cl` (relative stereo): the Ratio EC50 was 33.

As to `NC[C@H]1C[C@@H]1c1cccc(F)c1` (relative stereo), the Ratio EC50 came out at 131.

Consider `NC[C@H]1C[C@@H]1c1cccc(F)c1F` (relative stereo), for which the Ratio EC50 is > 50.

On to `NC[C@H]1C[C@@H]1c1cccc(O)c1` (relative stereo), for which the Ratio EC50 worked out at 75.

With `NC[C@H]1C[C@@H]1c1ccccc1Cl` (relative stereo), the Ratio EC50 is 31.

On to `NC[C@H]1C[C@@H]1c1ccccc1F` (relative stereo), for which the Ratio EC50 came to 20.

As for `NC[C@H]1C[C@@H]1c1ccccc1O` (relative stereo), the Ratio EC50 was found to be 3.2.

The target of the next assay is T1, 5-hydroxytryptamine receptor 2C (Homo sapiens) (UniProt P28335).
T1 sequence (whole entry): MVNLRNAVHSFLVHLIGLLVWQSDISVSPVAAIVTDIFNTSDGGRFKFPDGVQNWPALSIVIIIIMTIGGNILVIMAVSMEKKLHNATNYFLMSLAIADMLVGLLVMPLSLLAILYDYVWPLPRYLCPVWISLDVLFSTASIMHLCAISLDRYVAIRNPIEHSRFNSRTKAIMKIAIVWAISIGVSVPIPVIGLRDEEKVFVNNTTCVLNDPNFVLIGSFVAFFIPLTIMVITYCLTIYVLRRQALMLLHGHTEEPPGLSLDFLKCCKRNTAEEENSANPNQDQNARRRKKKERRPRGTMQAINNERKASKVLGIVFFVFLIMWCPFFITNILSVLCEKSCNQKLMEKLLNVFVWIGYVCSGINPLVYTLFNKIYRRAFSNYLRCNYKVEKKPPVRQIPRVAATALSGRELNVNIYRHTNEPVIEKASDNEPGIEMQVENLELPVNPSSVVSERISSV
Kind of assay: Agonist activity at human 5HT2C receptor expressed in HEK293 cells at 10 uM assessed as calcium flux by FLIPR assay relative to serotonin. The format is functional, cell-based. (A change in cytosolic calcium serves as a functional read-out for many receptors and channels.)
For `NC[C@@H]1C[C@H]1c1ccccc1`, the Emax worked out at 102%.

Regarding `CNC[C@H]1C[C@@H]1c1ccccc1` (racemic), the Emax amounted to 101%.

Consider `NC[C@H]1C[C@H]1c1ccccc1` (racemic), for which the maximal response (Emax) worked out at 104%.

On to `NC[C@H]1C[C@@H]1c1ccc(C(F)(F)F)cc1` (relative stereo), for which the Emax is 91%.

Regarding `NC[C@H]1C[C@@H]1c1ccc(F)cc1F` (relative stereo), the Emax turned out to be 98%.

Consider `NC[C@H]1C[C@@H]1c1ccc2ccccc2c1` (relative stereo), for which the Emax came to 60%.

For `NC[C@H]1C[C@@H]1c1cccc(Br)c1` (relative stereo), the Emax amounted to 90%.

As to `NC[C@H]1C[C@@H]1c1cccc(C(F)(F)F)c1` (relative stereo), the Emax was found to be 94%.

Turning to `NC[C@H]1C[C@@H]1c1cccc(Cl)c1` (relative stereo), the Emax amounted to 98%.

For the molecule `NC[C@H]1C[C@@H]1c1cccc(Cl)c1Cl` (relative stereo), the Emax was determined as 96%.

On to `NC[C@H]1C[C@@H]1c1cccc(F)c1` (relative stereo), for which the Emax came out at 92%.

With `NC[C@H]1C[C@@H]1c1cccc(F)c1F` (relative stereo), the Emax is 101%.

Take `NC[C@H]1C[C@@H]1c1cccc(O)c1` (relative stereo): the Emax is 94%.

Turning to `NC[C@H]1C[C@@H]1c1ccccc1C(F)(F)F` (relative stereo), the Emax was 101%.

Turning to `NC[C@H]1C[C@@H]1c1ccccc1Cl` (relative stereo), the Emax came out at 94%.

Turning to `NC[C@H]1C[C@@H]1c1ccccc1F` (relative stereo), the Emax came to 91%.

Consider `NC[C@H]1C[C@@H]1c1ccccc1O` (relative stereo), for which the Emax worked out at 94%.

For the next assay, the species on record is Homo sapiens. Kind of assay: Selectivity ratio of EC50 for human 5HT2B receptor to EC50 for human 5HT2C receptor.
As to `NC[C@@H]1C[C@H]1c1ccccc1`, the Ratio EC50 was found to be 3.4.

As to `NC[C@H]1C[C@@H]1c1ccc(F)cc1F` (relative stereo), the Ratio EC50 was 9.9.

Turning to `NC[C@H]1C[C@@H]1c1ccc2ccccc2c1` (relative stereo), the Ratio EC50 is 0.18.

Regarding `NC[C@H]1C[C@@H]1c1cccc(Br)c1` (relative stereo), the Ratio EC50 came out at 10.

For the molecule `NC[C@H]1C[C@@H]1c1cccc(C(F)(F)F)c1` (relative stereo), the Ratio EC50 was found to be 2.6.

In the case of `NC[C@H]1C[C@@H]1c1cccc(Cl)c1` (relative stereo), the Ratio EC50 was 5.9.

For the molecule `NC[C@H]1C[C@@H]1c1cccc(Cl)c1Cl` (relative stereo), the Ratio EC50 was 1.4.

`NC[C@H]1C[C@@H]1c1cccc(F)c1` (relative stereo): the Ratio EC50 turned out to be 1.1.

Take `NC[C@H]1C[C@@H]1c1cccc(F)c1F` (relative stereo): the Ratio EC50 amounted to 3.7.

With `NC[C@H]1C[C@@H]1c1cccc(O)c1` (relative stereo), the Ratio EC50 was found to be 1.7.

`NC[C@H]1C[C@@H]1c1ccccc1C(F)(F)F` (relative stereo): the Ratio EC50 was 7.2.

In the case of `NC[C@H]1C[C@@H]1c1ccccc1Cl` (relative stereo), the Ratio EC50 worked out at 5.8.

For `NC[C@H]1C[C@@H]1c1ccccc1F` (relative stereo), the Ratio EC50 was 2.1.

Regarding `NC[C@H]1C[C@@H]1c1ccccc1O` (relative stereo), the Ratio EC50 amounted to 3.1.

For another assay, the target named is 5-hydroxytryptamine receptor 2B (Homo sapiens, UniProt P41595). Kind of assay: Agonist activity at human 5HT2B receptor expressed in HEK293 cells at 10 uM assessed as calcium flux by FLIPR assay relative to serotonin. The format is functional, cell-based.
Chain of 5-hydroxytryptamine receptor 2B (P41595 whole entry): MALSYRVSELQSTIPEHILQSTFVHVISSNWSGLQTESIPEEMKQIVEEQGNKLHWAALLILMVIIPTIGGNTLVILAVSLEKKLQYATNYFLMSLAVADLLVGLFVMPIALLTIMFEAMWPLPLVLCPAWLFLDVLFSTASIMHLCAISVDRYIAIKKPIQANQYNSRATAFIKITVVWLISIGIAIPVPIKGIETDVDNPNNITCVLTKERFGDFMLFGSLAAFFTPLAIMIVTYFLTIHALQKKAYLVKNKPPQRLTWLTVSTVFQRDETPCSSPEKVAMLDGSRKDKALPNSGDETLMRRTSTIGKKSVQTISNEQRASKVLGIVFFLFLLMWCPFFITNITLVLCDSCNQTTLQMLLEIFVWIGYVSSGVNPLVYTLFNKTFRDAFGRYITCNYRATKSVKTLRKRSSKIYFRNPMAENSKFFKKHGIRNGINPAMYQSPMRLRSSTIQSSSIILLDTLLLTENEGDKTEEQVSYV
`NC[C@@H]1C[C@H]1c1ccccc1`: the Emax is 72%.

For `CNC[C@H]1C[C@@H]1c1ccccc1` (racemic), the Emax was determined as 26%.

For the molecule `NC[C@H]1C[C@H]1c1ccccc1` (racemic), the Emax stood at 20%.

Take `NC[C@H]1C[C@@H]1c1ccc(C(F)(F)F)cc1` (relative stereo): the Emax is 56%.

Turning to `NC[C@H]1C[C@@H]1c1ccc(F)cc1F` (relative stereo), the Emax worked out at 88%.

With `NC[C@H]1C[C@@H]1c1ccc2ccccc2c1` (relative stereo), the maximal effect (Emax) worked out at 21%.

As for `NC[C@H]1C[C@@H]1c1cccc(Br)c1` (relative stereo), the Emax came to 74%.

In the case of `NC[C@H]1C[C@@H]1c1cccc(C(F)(F)F)c1` (relative stereo), the maximum response (Emax) worked out at 78%.

As to `NC[C@H]1C[C@@H]1c1cccc(Cl)c1` (relative stereo), the Emax came to 78%.

Turning to `NC[C@H]1C[C@@H]1c1cccc(Cl)c1Cl` (relative stereo), the Emax was 89%.

Regarding `NC[C@H]1C[C@@H]1c1cccc(F)c1` (relative stereo), the Emax worked out at 87%.

On to `NC[C@H]1C[C@@H]1c1cccc(F)c1F` (relative stereo), for which the Emax turned out to be 93%.

For the molecule `NC[C@H]1C[C@@H]1c1cccc(O)c1` (relative stereo), the Emax is 98%.

On to `NC[C@H]1C[C@@H]1c1ccccc1C(F)(F)F` (relative stereo), for which the Emax came to 102%.

Regarding `NC[C@H]1C[C@@H]1c1ccccc1Cl` (relative stereo), the maximum response (Emax) was found to be 82%.

For `NC[C@H]1C[C@@H]1c1ccccc1F` (relative stereo), the Emax was determined as 65%.

Take `NC[C@H]1C[C@@H]1c1ccccc1O` (relative stereo): the Emax was 74%.

The target in a further assay is T2, 5-hydroxytryptamine receptor 2A (Homo sapiens, UniProt P28223). Kind of assay: Agonist activity at human 5HT2A receptor expressed in HEK293 cells assessed as calcium flux by FLIPR assay. In kind it is functional, cell-based.
T2 sequence (P28223 whole entry): as the sequence (P28223 whole entry, looked up, one chain of several) above
With `NC[C@@H]1C[C@H]1c1ccccc1`, the result was inactive.

Turning to `CNC[C@H]1C[C@@H]1c1ccccc1` (racemic), the result was inactive.

Regarding `NC[C@H]1C[C@H]1c1ccccc1` (racemic), the outcome was inactive.

For `NC[C@H]1C[C@@H]1c1ccc(C(F)(F)F)cc1` (relative stereo), the result was inactive.

Regarding `NC[C@H]1C[C@@H]1c1ccc2ccccc2c1` (relative stereo), the outcome was inactive.

For the molecule `NC[C@H]1C[C@@H]1c1ccccc1C(F)(F)F` (relative stereo), the result was inactive.

For another assay, the target named is T2, 5-hydroxytryptamine receptor 2A. Kind of assay: Agonist activity at human 5HT2A receptor expressed in HEK293 cells at 10 uM assessed as calcium flux by FLIPR assay relative to serotonin. In kind it is functional, cell-based.
On to `NC[C@@H]1C[C@H]1c1ccccc1`, for which the Emax is < 12%.

For `CNC[C@H]1C[C@@H]1c1ccccc1` (racemic), the Emax was < 12%.

`NC[C@H]1C[C@H]1c1ccccc1` (racemic): the Emax is < 12%.

For `NC[C@H]1C[C@@H]1c1ccc(C(F)(F)F)cc1` (relative stereo), the Emax was < 12%.

As for `NC[C@H]1C[C@@H]1c1ccc(F)cc1F` (relative stereo), the Emax was 85%.

As for `NC[C@H]1C[C@@H]1c1ccc2ccccc2c1` (relative stereo), the Emax is < 12%.

On to `NC[C@H]1C[C@@H]1c1cccc(Br)c1` (relative stereo), for which the Emax was 55%.

Regarding `NC[C@H]1C[C@@H]1c1cccc(C(F)(F)F)c1` (relative stereo), the Emax stood at 35%.

`NC[C@H]1C[C@@H]1c1cccc(Cl)c1` (relative stereo): the Emax is 42%.

On to `NC[C@H]1C[C@@H]1c1cccc(Cl)c1Cl` (relative stereo), for which the Emax was found to be 77%.

Consider `NC[C@H]1C[C@@H]1c1cccc(F)c1` (relative stereo), for which the Emax stood at 71%.

On to `NC[C@H]1C[C@@H]1c1cccc(F)c1F` (relative stereo), for which the Emax is 45%.

As to `NC[C@H]1C[C@@H]1c1cccc(O)c1` (relative stereo), the Emax was 92%.

For `NC[C@H]1C[C@@H]1c1ccccc1C(F)(F)F` (relative stereo), the Emax is < 12%.

In the case of `NC[C@H]1C[C@@H]1c1ccccc1Cl` (relative stereo), the Emax came out at 54%.

Consider `NC[C@H]1C[C@@H]1c1ccccc1F` (relative stereo), for which the Emax is 52%.

As to `NC[C@H]1C[C@@H]1c1ccccc1O` (relative stereo), the Emax was 81%.

For orientation: Emax means the maximal effect, on the per cent scale that the assay sets.
